The target of series [1] is recombinant human DPPI (Cathepsin C) (Homo sapiens (Human), UniProt P53634). The series is described as follows: Inhibition of human DPPI (Cathepsin C). The series is classed as biochemical. As to conditions: substrate Gly-Arg-AMC. The method in brief:
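Recombinant human DPPI in MES buffer pH 6.0 (5 mM DTT, 0.1% BSA); fluorogenic substrate at 50 μM final, 30 min at room temperature, stopped with 1 μM Gly-Phe-DMK. Background-subtracted fluorescence expressed as percent of vehicle control; IC50 derived.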

The target in series [2] is recombinant human Cathepsin K (Homo sapiens (Human), UniProt P43235). Description: Inhibition of human Cathepsin K. It counts as biochemical. The note with it: substrate Z-Gly-Pro-Arg-AMC. The method in brief:
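Proenzyme activated in pH 3.5 sodium acetate for 30 min at room temperature. Enzyme (2 ng/μL final) preincubated 10 min with compound (0.1 nM–100 μM, 1% DMSO) in pH 5.5 acetate/EDTA/L-cysteine buffer, then reacted 60 min at room temperature with Z-Gly-Pro-Arg-AMC. Stopped with 1 μM E64; fluorescence Ex 360/Em 460 nm; IC50 from background-subtracted percent of vehicle control.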

Series [3] is described as follows: Determination of metabolic stability with human liver microsomes. The note with it: human, pooled human liver microsomes, pH 7.6.
Method: Determination of Metabolic Stability with Human Liver Microsomes
The metabolic degradation of the test compound is assayed at 37° C. with pooled human liver microsomes. The final incubation volume of 100 μl per time point contains TRIS buffer pH 7.6 (0.1 M), magnesium chloride (5 mM), microsomal protein (1 mg/ml) and the test compound at a final concentration of 1 μM. Following a short preincubation period at 37° C., the reactions are initiated by addition of beta-nicotinamide adenine dinucleotide phosphate, reduced form (NADPH, 1 mM) and terminated by transferring an aliquot into acetonitrile after different time points. Additionally, the NADPH-independent degradation is monitored in incubations without NADPH, terminated at the last time point. The [%] remaining test compound after NADPH independent incubation is reflected by the parameter c (control) (metabolic stability). The quenched incubations are pelleted by centrifugation (10,000 g, 5 min). An aliquot of the supernatant is assayed by LC-MS/MS for the amount of parent compound.
The half-life (t½ INVITRO) is determined by the slope of the semilogarithmic plot of the concentration-time profile.

Structures are written as SMILES. pIC50: −log10 of the molar value. Where only a bound is given, the exact number is not on record here.

Sequence of recombinant human Cathepsin K (P43235 115-329): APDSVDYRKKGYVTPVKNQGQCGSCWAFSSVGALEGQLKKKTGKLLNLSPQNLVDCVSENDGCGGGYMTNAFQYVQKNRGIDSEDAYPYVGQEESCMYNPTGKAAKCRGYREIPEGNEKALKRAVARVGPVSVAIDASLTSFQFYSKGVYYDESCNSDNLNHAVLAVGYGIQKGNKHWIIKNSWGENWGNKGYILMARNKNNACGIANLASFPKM
Sequence of recombinant human DPPI (Cathepsin C) (P53634 231-394): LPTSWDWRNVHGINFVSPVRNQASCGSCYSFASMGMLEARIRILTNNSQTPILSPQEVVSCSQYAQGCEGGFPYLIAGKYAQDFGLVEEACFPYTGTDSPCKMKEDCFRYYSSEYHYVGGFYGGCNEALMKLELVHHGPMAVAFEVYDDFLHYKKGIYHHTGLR
Sequence of recombinant human DPPI (Cathepsin C) (P53634 395-463): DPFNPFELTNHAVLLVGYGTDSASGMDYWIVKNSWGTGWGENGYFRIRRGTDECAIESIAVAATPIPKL
Sequence of recombinant human DPPI (Cathepsin C) (P53634 25-134): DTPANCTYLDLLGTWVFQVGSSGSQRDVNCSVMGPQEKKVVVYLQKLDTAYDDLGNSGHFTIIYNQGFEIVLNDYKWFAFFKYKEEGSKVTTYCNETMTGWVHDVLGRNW

With `N#CC(Cc1cc2c(=O)[nH]c3cc(F)ccc3c2cc1F)NC(=O)[C@H]1N[C@@H]2CC[C@H]1C2` (stereo partly drawn) [Example 293], the negative logarithm of the IC50 (pIC50) is 8.89 in series [1] and 5.57 in series [2]. For the same molecule, in series [3], the half-life at 1 μM was above 2.17 h.

Consider `CN1CCN(S(=O)(=O)c2ccc(-c3ccc(C[C@@H](C#N)NC(=O)[C@H]4N[C@@H]5CC[C@H]4C5)c(F)c3)cc2)CC1` [Example 155], for which the pIC50 in series [1] is 9.10; in series [2], 6.00. The half-life at 1 μM in series [3] came to 1.03 h.

Turning to `CS(=O)(=O)Nc1cccc(-c2ccc(C[C@@H](C#N)NC(=O)[C@H]3N[C@H]4C[C@@H]3[C@@H]3C[C@@H]34)c(F)c2)c1` [Example 139], the negative-log IC50 (pIC50) in series [1] was 7.93; in series [2], 5.32. The half-life at 1 μM in series [3] was above 2.17 h.

As to `CN1CCN(C(=O)c2ccc(-c3ccc(C[C@@H](C#N)NC(=O)[C@H]4N[C@@H]5CC[C@H]4C5)c(F)c3)cc2)CC1` [Example 185], the figures for the pIC50 in series [1] and in series [2] were 8.05 and 5.77, respectively. The molecule further returned a half-life at 1 μM in series [3] above 2.17 h.

As to `N#C[C@H](Cc1ccc(N2CCN3CCOC[C@@H]3C2)cc1F)NC(=O)[C@H]1N[C@@H]2CC[C@H]1C2` [Example 249], the values for the negative-log IC50 (pIC50) in series [1] and in series [2] were 8.20 and 5.44, respectively. The half-life at 1 μM in series [3] was above 2.17 h.

For `CN1CC2(C1)CN(c1ccc(C[C@@H](C#N)NC(=O)[C@H]3N[C@@H]4CC[C@H]3C4)c(F)c1)C2` [Example 330], the pIC50 is 8.11 in series [1] and 5.18 in series [2]. The half-life at 1 μM in series [3] was above 2.17 h.

As for `N#C[C@H](Cc1ccc(-n2cc(-c3ccc4[nH]ccc4c3)nn2)cc1F)NC(=O)[C@H]1N[C@@H]2CC[C@H]1C2` [Example 5, (1S,2S,4R)—N-[(1S)-1-cyano-2-[2-fluoro-4-[4-(1H-indol-5-yl)triazol-1-yl]phenyl]ethyl]-3-azabicyclo[2.2.1]heptane-2-carboxamide], the figures for the negative logarithm of the IC50 (pIC50) in series [1] and in series [2] were 8.40 and 5.59, respectively. Besides, in series [3], the half-life at 1 μM came out at 1.53 h.

As to `CC(C)C(O)Cc1cn(-c2ccc(C[C@@H](C#N)NC(=O)[C@H]3N[C@@H]4CC[C@H]3C4)c(F)c2)nn1` (stereo partly drawn) [Example 109], the negative logarithm of the IC50 (pIC50) is 7.57 in series [1] and 5.35 in series [2]. Moreover, in series [3], the half-life at 1 μM was above 2.17 h.

For the molecule `N#C[C@H](Cc1ccc(-c2ccc3c(c2)COC3=O)cc1F)NC(=O)[C@H]1N[C@@H]2CC[C@H]1C2` [Example 3, (1S,2S,4R)—N-[(1S)-1-cyano-2-[2-fluoro-4-(1-oxo-3H-isobenzofuran-5-yl)phenyl]ethyl]-3-azabicyclo[2.2.1]heptane-2-carboxamide], the pIC50 is 9.15 in series [1] and 5.68 in series [2]. The molecule also yielded a half-life at 1 μM in series [3] of 0.95 h.

Take `N#C[C@H](Cc1ccc(C2=CCN3CCOCC3C2)cc1F)NC(=O)[C@H]1N[C@@H]2CC[C@H]1C2` (stereo partly drawn) [Example 281]: the pIC50 in series [1] is 8.48; in series [2], 5.72. Besides, in series [3], the half-life at 1 μM was above 2.17 h.

As to `N#C[C@H](Cc1ccc(-c2csc(C(=O)N3CCOCC3)c2)cc1F)NC(=O)[C@H]1N[C@@H]2CC[C@H]1C2` [Example 230], the figures for the pIC50 in series [1] and in series [2] were 8.74 and 5.23, respectively. Moreover, the half-life at 1 μM in series [3] was above 2.17 h.

In the case of `N#CC(Cc1ccc2c(cnc3cc(F)ccc32)c1)NC(=O)[C@H]1N[C@@H]2CC[C@H]1C2` (stereo partly drawn) [Example 315, (1S,2S,4R)—N-[1-cyano-2-(3-fluorophenanthridin-8-yl)ethyl]-3-azabicyclo[2.2.1]heptane-2-carboxamide], the figures for the pIC50 in series [1] and in series [2] were 7.87 and below 4.52, respectively. In series [3], the half-life at 1 μM was determined as 1.53 h.

Regarding `N#C[C@H](Cc1ccc2c(c1)c(=O)[nH]c1cc(C(F)(F)F)ccc12)NC(=O)[C@H]1N[C@@H]2CC[C@H]1C2` [Example 301], the values for the negative logarithm of the IC50 (pIC50) in series [1] and in series [2] were 8.35 and 4.71, respectively. The molecule also showed a half-life at 1 μM in series [3] of 1.67 h.

`CN1C(=O)Cc2ccc(-c3ccc(C[C@@H](C#N)NC(=O)[C@H]4N[C@@H]5CC[C@H]4C5)c(F)c3F)cc21` [Example 24]: the pIC50 in series [1] is 8.43; in series [2] it was 4.88. In addition, the half-life at 1 μM in series [3] amounted to 1.83 h.

In the case of `CC(=O)N1CCN(C(=O)c2cc(-c3ccc(C[C@@H](C#N)NC(=O)[C@H]4N[C@@H]5CC[C@H]4C5)c(F)c3)cs2)CC1` [Example 231], the values for the negative logarithm of the IC50 (pIC50) in series [1] and in series [2] were 8.66 and 5.62, respectively. The molecule also returned a half-life at 1 μM in series [3] above 2.17 h.

`N#CC(Cc1ccc(-c2ccc3c(c2)CCNC3=O)cc1F)NC(=O)[C@H]1N[C@@H]2CC[C@H]1C2` (stereo partly drawn) [Example 49]: the pIC50 was 8.14 in series [1] and 5.19 in series [2]. This molecule showed a half-life at 1 μM in series [3] above 2.17 h.

`N#C[C@H](Cc1cc2c(=O)[nH]c3cc(F)ccc3c2cc1F)NC(=O)[C@H]1N[C@@H]2CC[C@H]1C2` [Example 323]: the values for the pIC50 in series [1] and in series [2] were 9.10 and 6.05, respectively. The half-life at 1 μM in series [3] is above 2.17 h.

`CN1CCN(C(=O)c2cccc(-c3ccc(C[C@@H](C#N)NC(=O)[C@H]4N[C@@H]5CC[C@H]4C5)c(F)c3)c2)CC1` [Example 245]: the results for the negative-log IC50 (pIC50) in series [1] and in series [2] were 8.23 and 5.92, respectively. Moreover, the half-life at 1 μM in series [3] is above 2.17 h.

On to `Cn1cc(-c2ccc(C[C@@H](C#N)NC(=O)[C@H]3N[C@@H]4CC[C@H]3C4)c(F)c2)ccc1=O` [Example 254], for which the pIC50 in series [1] was 8.70; in series [2], 5.35. This molecule also showed a half-life at 1 μM in series [3] above 2.17 h.

Turning to `CN1CCC2CN(c3ccc(C[C@@H](C#N)NC(=O)[C@H]4N[C@@H]5CC[C@H]4C5)c(F)c3)CC21` (stereo partly drawn) [Example 349], the results for the negative logarithm of the IC50 (pIC50) in series [1] and in series [2] were 7.69 and 5.30, respectively. The molecule further came in with a half-life at 1 μM in series [3] above 2.17 h.

Turning to `CN1CCC2(C=C(c3ccc(C[C@@H](C#N)NC(=O)[C@H]4N[C@@H]5CC[C@H]4C5)c(F)c3)C2)CC1` [Example 359], the negative-log IC50 (pIC50) in series [1] was 8.06; in series [2], 5.20. Moreover, the half-life at 1 μM in series [3] was above 2.17 h.

`CN1CCC(Oc2ccc(C[C@@H](C#N)NC(=O)[C@H]3N[C@@H]4CC[C@H]3C4)c(F)c2)CC1` [Example 319, (1S,2S,4R)—N-[(1S)-1-cyano-2-[2-fluoro-4-[(1-methyl-4-piperidyl)oxy]phenyl]ethyl]-3-azabicyclo[2.2.1]heptane-2-carboxamide]: the figures for the negative-log IC50 (pIC50) in series [1] and in series [2] were 7.76 and 5.35, respectively. The half-life at 1 μM in series [3] is above 2.17 h.

`N#CC(Cc1ccc(-c2cnn(C3CCOCC3)c2)cc1F)NC(=O)[C@H]1N[C@@H]2CC[C@H]1C2` (stereo partly drawn) [Example 116]: the pIC50 in series [1] was 7.41; in series [2], 5.11. This molecule registered a half-life at 1 μM in series [3] above 2.17 h.

For `N#C[C@H](Cc1ccc(-c2ccc(S(N)(=O)=O)cc2)cc1F)NC(=O)[C@H]1N[C@H]2C[C@@H]1[C@@H]1C[C@@H]12` [Example 136], the figures for the pIC50 in series [1] and in series [2] were 7.99 and 5.21, respectively. In series [3], this molecule yielded a half-life at 1 μM above 2.17 h.

For the molecule `N#C[C@H](Cc1ccc(-c2ccc(C(F)(F)F)s2)cc1F)NC(=O)[C@H]1N[C@@H]2CC[C@H]1C2` [Example 33], the pIC50 in series [1] was 8.35; in series [2] it was 5.32. Also, the half-life at 1 μM in series [3] was above 2.17 h.

In the case of `CN1C(=O)C(C)(C)c2ccc(-c3ccc(C[C@@H](C#N)NC(=O)[C@H]4N[C@@H]5CC[C@H]4C5)c(F)c3)cc21` [Example 199], the pIC50 in series [1] is 7.80; in series [2] it was 4.93. The molecule also showed a half-life at 1 μM in series [3] of 1.47 h.

Take `CO[C@@H]1C[C@@H]2CN(c3ccc(C[C@@H](C#N)NC(=O)[C@H]4N[C@@H]5CC[C@H]4C5)c(F)c3)CCN2C1` [Example 269]: the results for the negative logarithm of the IC50 (pIC50) in series [1] and in series [2] were 8.03 and 5.77, respectively. In addition, the half-life at 1 μM in series [3] was above 2.17 h.

Take `N#C[C@H](Cc1ccc(N2CCN3CCOC[C@H]3C2)cc1F)NC(=O)[C@H]1N[C@@H]2CC[C@H]1C2` [Example 250]: the negative logarithm of the IC50 (pIC50) in series [1] was 8.38; in series [2] it was 5.51. Further, in series [3], the half-life at 1 μM is above 2.17 h.

On to `CS(=O)(=O)c1cccc(-c2ccc(CC(C#N)NC(=O)[C@H]3N[C@@H]4CC[C@H]3C4)c(F)c2)c1` (stereo partly drawn) [Example 88], for which the pIC50 is 7.82 in series [1] and 5.06 in series [2]. The molecule also yielded a half-life at 1 μM in series [3] above 2.17 h.

For `N#CC(Cc1ccc(-c2ccc3c(c2)NC(=O)C3)cc1F)NC(=O)[C@H]1N[C@@H]2CC[C@H]1C2` (stereo partly drawn) [Example 22], the negative-log IC50 (pIC50) in series [1] is 8.48; in series [2] it was 5.49. In series [3], this molecule displayed a half-life at 1 μM above 2.17 h.

Turning to `N#C[C@H](Cc1ccc(-n2cc(COC(=O)N3CCCC3)nn2)cc1F)NC(=O)[C@H]1N[C@@H]2CC[C@H]1C2` [Example 106], the results for the negative logarithm of the IC50 (pIC50) in series [1] and in series [2] were 7.59 and 5.28, respectively. Also, the half-life at 1 μM in series [3] was above 2.17 h.

Consider `N#CC(Cc1ccc(-c2cnc(Cl)cn2)cc1F)NC(=O)[C@H]1N[C@@H]2CC[C@H]1C2` (stereo partly drawn) [Example 102], for which the pIC50 in series [1] is 7.61; in series [2], 5.37. In series [3], this molecule yielded a half-life at 1 μM above 2.17 h.

Take `N#C[C@H](Cc1ccc(-c2cccc(S(=O)(=O)C3CC3)c2)cc1F)NC(=O)[C@H]1N[C@@H]2CC[C@H]1C2` [Example 153]: the pIC50 in series [1] was 8.42; in series [2] it was 5.36. In series [3], this molecule came in with a half-life at 1 μM of 1.83 h.

Consider `CS(=O)(=O)c1ccc(-c2ccc(CC(C#N)NC(=O)[C@H]3N[C@@H]4CC[C@H]3C4)c(F)c2)cc1` (stereo partly drawn) [Example 54], for which the negative logarithm of the IC50 (pIC50) in series [1] was 8.09; in series [2], 5.35. Also, the half-life at 1 μM in series [3] was above 2.17 h.

Regarding `N#CC(Cc1ccc(-c2ccc(C(N)=O)cc2)cc1F)NC(=O)[C@H]1N[C@@H]2CC[C@H]1C2` (stereo partly drawn) [Example 83], the negative logarithm of the IC50 (pIC50) in series [1] was 7.88; in series [2], 5.29. Further, in series [3], the half-life at 1 μM is above 2.17 h.
